Legend:
Assay in all cases: spot-on-lawn antimicrobial activity test
Assay type in all cases: cell-based
[1] = system: Escherichia coli ATCC 25922
Method: (§1) In order to evaluate the antimicrobial activity of the purified antimicrobial peptides PG1 and PMAP36 according to the embodiment of the present invention, a spot-on-lawn test was carried out using E. coli ATCC 25922, Pseudomonas aeruginosa ATCC 27853, and Staphylococcus aureus ATCC 29213.

[2] = system: Pseudomonas aeruginosa ATCC 27853
Method: as §1

[3] = system: Staphylococcus aureus ATCC 29213
Method: as §1

Substance	Antimicrobial activity assay for the recombinant AMP produced [1] [µg/mL]	Antimicrobial activity assay for the recombinant AMP produced [2] [µg/mL]	Antimicrobial activity assay for the recombinant AMP produced [3] [µg/mL]
Protegrin 1 (RGGRLCYCRRRFCVCVGRG) [PG1, recombinantly produced antimicrobial peptide with anti-parallel beta-hairpin structure stabilized by two disulfide bonds, first discovered in pig leucocytes]	7	15	10
pig myeloid antibacterial peptide36 (GRFRRLRKKTRKRLKKIGKVLKWIPPIVGSIPLGCG; listed as Sus scrofa) [PMAP36, recombinantly produced antimicrobial peptide having a helix structure]	10	11	9

From US11230575B2, “Insoluble fusion protein comprising antimicrobial peptide and method for producing antimicrobial peptide using same” (Konkuk University Industrial Cooperation Corp., priority 2016, dated 2022)
